From patent publication US8188135B2, “Compounds as cannabinoid receptor ligands” (priority 2008, dated 2012)
Several values for one entry are separate records, joined by “and”; a condition that tells them apart may be missing. Equal entries are not always repeated. Where two headings read alike, the source gives them in different places.

Experiments:
[1] = target: T1, human CB2 receptors (Homo sapiens, UniProt P34972); test: human CB2 radioligand binding assay ([3H]CP 55,940 competition); details: HEK293 membranes, 0.5 nM [3H]CP 55,940
T1 construct: expressed in transfected cells; host or cells: HEK293
Outline: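 Displacement of 0.5 nM [3H]CP 55,940 over 0.01 nM-10 μM test compound, measured on human CB2 membranes from stably transfected HEK293 cells. Incubation 90 min at 30 °C in Tris/EDTA/MgCl2/BSA, pH 7.4, then filter-bound radioactivity counted; 10 μM unlabeled CP 55,940 defined nonspecific binding.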

[2] = target: T2, Rat CB1 (Rattus norvegicus, UniProt P20272); test: rat CB1 cyclase functional assay (HitHunter cAMP); assay type: cell-based; details: HEK cells, forskolin 37 μM
T2 construct: expressed in transfected cells; host or cells: HEK
Procedure: (§1) The cyclase functional assays were performed using the HitHunter™ cAMP assay kit from DiscoveRx (Fremont, Calif.) according to vendor's protocol. Briefly, HEK cells expressing CB2 or CB1 receptors (rat or human) were detached using cell dissociation buffer (Invitrogen, Carlsbad, Calif.), dispersed and placed in suspension at 10,000 cells per well in 96 well plates prior to the assay. Cell suspensions were incubated at 37° C. for 20 min with variable concentrations of test ligands and or 10 μM CP 55,940-positive control in the presence of a fixed concentration of forskolin (18 μM for rat CB2 and 37 μM for rat CB1) in Dulbescco's phosphate-buffered saline (Invitrogen, Carlsbad, Calif.) supplemented with bovine serum albumin (0.01% final concentration). The reactions were terminated by the addition of lysis buffer and the luminescence was detected following the procedure according to the manufacturer's instructions. EC50 values were calculated using sigmoidal dose-response curve fitting from Prism (GraphPad).

[3] = target: T3, rat CB2 (Rattus norvegicus, UniProt Q9QZN9); test: rat CB2 cyclase functional assay (HitHunter cAMP); assay type: cell-based; design: expressed in transfected cells; host or cells: HEK; details: HEK cells, forskolin 18 μM
T3 sequence (Q9QZN9 1-360): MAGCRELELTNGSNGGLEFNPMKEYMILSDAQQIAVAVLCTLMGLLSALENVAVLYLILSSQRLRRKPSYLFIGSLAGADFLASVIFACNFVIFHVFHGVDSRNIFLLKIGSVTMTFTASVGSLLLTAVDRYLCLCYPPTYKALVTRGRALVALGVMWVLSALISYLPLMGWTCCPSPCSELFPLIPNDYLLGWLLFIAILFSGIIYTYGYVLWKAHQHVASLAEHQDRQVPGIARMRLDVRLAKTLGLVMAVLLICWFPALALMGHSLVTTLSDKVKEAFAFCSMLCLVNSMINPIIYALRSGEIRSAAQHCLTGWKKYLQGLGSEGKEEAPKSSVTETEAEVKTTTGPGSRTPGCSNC
Procedure: as §1

[4] = target: T3, rat CB2; test: rat CB2 radioligand binding assay ([3H]CP 55,940 competition); design: expressed in transfected cells; host or cells: HEK293; details: HEK293 membranes, 0.5 nM [3H]CP 55,940
Outline: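 Competition binding against 0.5 nM [3H]CP 55,940 (pH 7.4 buffer with 0.5 mg/mL BSA, 30 °C, 45 min), with displacers spanning 0.01 nM–10 μM at five concentrations. Receptor source: stably transfected HEK293 membranes, 20 μg/well. Nonspecific binding defined by 10 μM unlabeled CP 55,940; readout by filtration and counting.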

[5] = read-out: Rat CB1 cyclase (EC50)
[6] = read-out: rat CB2 cyclase (EC50)

T1 sequence (P34972 whole entry): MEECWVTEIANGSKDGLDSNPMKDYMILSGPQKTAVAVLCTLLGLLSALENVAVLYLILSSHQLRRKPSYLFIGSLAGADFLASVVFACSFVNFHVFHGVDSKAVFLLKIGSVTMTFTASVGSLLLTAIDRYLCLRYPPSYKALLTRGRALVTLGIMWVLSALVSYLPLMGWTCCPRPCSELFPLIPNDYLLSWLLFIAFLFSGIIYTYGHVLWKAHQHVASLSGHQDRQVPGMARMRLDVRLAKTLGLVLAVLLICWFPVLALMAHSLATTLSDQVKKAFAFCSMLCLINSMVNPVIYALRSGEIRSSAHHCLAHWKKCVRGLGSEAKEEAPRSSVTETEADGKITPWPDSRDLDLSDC
T2 sequence (P20272 whole entry): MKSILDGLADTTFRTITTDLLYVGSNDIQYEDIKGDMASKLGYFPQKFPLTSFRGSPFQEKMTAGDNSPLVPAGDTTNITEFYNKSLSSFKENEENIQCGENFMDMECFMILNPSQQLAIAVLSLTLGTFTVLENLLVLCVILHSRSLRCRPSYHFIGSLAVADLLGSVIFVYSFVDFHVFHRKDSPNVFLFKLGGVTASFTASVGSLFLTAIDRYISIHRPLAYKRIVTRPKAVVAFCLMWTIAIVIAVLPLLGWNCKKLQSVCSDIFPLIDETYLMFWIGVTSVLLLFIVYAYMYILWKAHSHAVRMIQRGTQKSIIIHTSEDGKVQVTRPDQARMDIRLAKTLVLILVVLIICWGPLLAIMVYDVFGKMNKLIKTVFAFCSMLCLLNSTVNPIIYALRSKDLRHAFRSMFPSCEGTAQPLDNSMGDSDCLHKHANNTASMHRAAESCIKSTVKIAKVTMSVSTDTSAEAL

## Cn1c(C(C)(C)C)c/c(=N\C(=O)c2cc(C(F)(F)F)ccc2OC[C@@H]2CCC(C)(C)O2)n1C[C@H]1CCCO1 [Example 52]
[1]; read-out: human CB2 (Ki)
  Ki: 10 nM
[2]; [5]
  EC50: > 27000 nM
[3]; [6]
  EC50: 0.93 nM
[4]; read-out: rat CB2 (Ki)
  Ki: 19 nM

## Cn1c(C(C)(C)C)c/c(=N\C(=O)c2cc(C(F)(F)F)ccc2OCCS(C)(=O)=O)n1C[C@H]1CCCO1 [Example 56]
[1]; human CB2 (Ki, nM)
  Ki: 66 nM
[2]; Rat CB1 cyclase (EC50, nM)
  EC50: 2780 nM
[3]; rat CB2 cyclase (EC50, nM)
  EC50: 0.93 nM
[4]; rat CB2 (Ki, nM)
  Ki: 28 nM

## CC1CCC(COc2ccc(C(F)(F)F)cc2C(=O)N=c2cc(C(C)(C)C)n(C)n2CC2CCCO2)O1 (single isomer, unassigned) [Example 37]
[1]; human CB2 (Ki, nM)
  Ki: 57 nM
[2]; Rat CB1 cyclase (EC50, nM)
  EC50: 8590 nM
[3]; rat CB2 cyclase (EC50, nM)
  EC50: 0.45 nM
[4]; rat CB2 (Ki, nM)
  Ki: 16 nM

## Cn1c(C(C)(C)C)c/c(=N\C(=O)c2cc(C(F)(F)F)ccc2OC[C@@H]2C=CCO2)n1C[C@H]1CCCO1 [Example 25, N-{(3E)-5-tert-1-methyl-2-[(2R)-tetrahydrofuran-2-ylmethyl]-1,2-dihydro-3H-pyrazol-3-ylidene}-2-[(2S)-2,5-dihydrofuran-2-ylmethoxy]-5-(trifluoromethyl)benzamide]
[1]; read-out: human CB2 (Ki)
  Ki: 31 nM
[2]; [5]
  EC50: 531 nM
[3]; [6]
  EC50: 0.3 nM
[4]; read-out: rat CB2 (Ki)
  Ki: 20 nM

## Cn1c(C(C)(C)C)c/c(=N\C(=O)c2cc(C(F)(F)F)ccc2OCc2cccnc2)n1C[C@H]1CCCO1 [Example 43, N-{(3E)-5-tert-butyl-1-methyl-2-[(2R)-tetrahydrofuran-2-ylmethyl]-1,2-dihydro-3H-pyrazol-3-ylidene}-2-(pyridin-3-ylmethoxy)-5-(trifluoromethyl)benzamide]
[1]; human CB2 (Ki, nM)
  Ki: 220 nM
[2]; Rat CB1 cyclase (EC50, nM)
  EC50: > 27000 nM
[3]; rat CB2 cyclase (EC50, nM)
  EC50: 2.4 nM
[4]; rat CB2 (Ki, nM)
  Ki: 56 nM

## Cn1c(C(C)(C)C)c/c(=N\C(=O)c2cc(C(F)(F)F)ccc2OCCCS(C)(=O)=O)n1C[C@H]1CCCO1 [Example 60, N-{(3E)-5-tert-butyl-1-methyl-2-[(2R)-tetrahydrofuran-2-ylmethyl]-1,2-dihydro-3 H-pyrazol-3-ylidene}-2-[3-(methylsulfonyl)propoxy]-5-(trifluoromethyl)benzamide]
[1]; human CB2 (Ki, nM)
  Ki: 92 nM
[2]; Rat CB1 cyclase (EC50, nM)
  EC50: > 27000 nM
[3]; rat CB2 cyclase (EC50, nM)
  EC50: 0.26 nM
[4]; rat CB2 (Ki, nM)
  Ki: 42 nM

## Cn1c(C(C)(C)C)c/c(=N\C(=O)c2cc(C(F)(F)F)ccc2NC[C@@H]2CCCO2)n1C[C@H]1CCCO1 [Example 21, N-{(3E)-5-tert-butyl-1-methyl-2-[(2R)-tetrahydrofuran-2-ylmethyl]-1,2-dihydro-3H-pyrazol-3-ylidene}-2-{[(2S)-tetrahydrofuran-2-ylmethyl]amino}-5-(trifluoromethyl)benzamide]
[1]; human CB2 (Ki, nM)
  Ki: 0.9 nM
[2]; Rat CB1 cyclase (EC50, nM)
  EC50: 901 nM
[3]; rat CB2 cyclase (EC50, nM)
  EC50: 0.19 nM
[4]; rat CB2 (Ki, nM)
  Ki: 0.6 nM

## CN1CCC[C@H]1COc1ccc(C(F)(F)F)cc1C(=O)/N=C1\SC(C)(C)CN1C[C@H]1CCCO1 [Example 33, N-{(2Z)-5,5-dimethyl-3-[(2R)-tetrahydrofuran-2-ylmethyl]-1,3-thiazolidin-2-ylidene}-2-{[(2S)-1-methylpyrrolidin-2-yl]methoxy}-5-(trifluoromethyl)benzamide]
[1]; human CB2 (Ki, nM)
  Ki: 23 nM
[2]; Rat CB1 cyclase (EC50, nM)
  EC50: 5380 nM
[3]; rat CB2 cyclase (EC50, nM)
  EC50: 0.09 nM
[4]; rat CB2 (Ki, nM)
  Ki: 20 nM

## Cn1c(C(C)(C)C)c/c(=N\C(=O)c2cc(C(F)(F)F)ccc2OC[C@@H]2CCN2)n1C[C@H]1CCCO1 [Example 2, 2-[(2S)-azetidin-2-ylmethoxy]-N-{(3E)-5-tert-butyl-1-methyl-2-[(2R)-tetrahydrofuran-2-ylmethyl]-1,2-dihydro-3H-pyrazol-3-ylidene}-5-(trifluoromethyl)benzamide]
[1]; human CB2 (Ki, nM)
  Ki: > 1000 nM
[2]; Rat CB1 cyclase (EC50, nM)
  EC50: 11200 nM
[3]; rat CB2 cyclase (EC50, nM)
  EC50: 0.77 nM
[4]; rat CB2 (Ki, nM)
  Ki: 195 nM

## Cn1c(C(C)(C)C)c/c(=N\C(=O)c2cc(C(F)(F)F)cc(Cl)c2OC[C@@H]2CCCO2)n1C[C@H]1CCCO1 [Example 28, N-{(3E)-5-tert-butyl-1-methyl-2-[(2R)-tetrahydrofuran-2-ylmethyl]-1,2-dihydro-3H-pyrazol-3-ylidene}-3-chloro-2-[(2S)-tetrahydrofuran-2-ylmethoxy]-5-(trifluoromethyl)benzamide]
[1]; human CB2 (Ki, nM)
  Ki: 44 nM
[2]; Rat CB1 cyclase (EC50, nM)
  EC50: 8090 nM
[3]; rat CB2 cyclase (EC50, nM)
  EC50: 0.91 nM
[4]; rat CB2 (Ki, nM)
  Ki: 15 nM

## Cn1c(C(C)(C)C)c/c(=N\C(=O)c2cc(C(F)(F)F)ccc2OCc2cnccn2)n1C[C@H]1CCCO1 [Example 40, N-{(3E)-5-tert-butyl-1-methyl-2-[(2R)-tetrahydrofuran-2-ylmethyl]-1,2-dihydro-3H-pyrazol-3-ylidene}-2-(pyrazin-2-ylmethoxy)-5-(trifluoromethyl)benzamide]
[1]; human CB2 (Ki, nM)
  Ki: 126 nM
[2]; Rat CB1 cyclase (EC50, nM)
  EC50: > 27000 nM
[3]; rat CB2 cyclase (EC50, nM)
  EC50: 3.3 nM
[4]; rat CB2 (Ki, nM)
  Ki: 73 nM

## CSCCCOc1ccc(C(F)(F)F)cc1C(=O)/N=c1\cc(C(C)(C)C)n(C)n1C[C@H]1CCCO1 [Example 58]
[1]; human CB2 (Ki, nM)
  Ki: 3.9 nM
[2]; Rat CB1 cyclase (EC50, nM)
  EC50: > 27000 nM
[3]; rat CB2 cyclase (EC50, nM)
  EC50: 0.7 nM
[4]; rat CB2 (Ki, nM)
  Ki: 5.1 nM

## Cn1c(C(C)(C)C)c/c(=N\C(=O)c2cc(C(F)(F)F)ccc2OCC[C@H]2COC(C)(C)O2)n1C[C@H]1CCCO1 [Example 17, N-{(3E)-5-tert-butyl-1-methyl-2-[(2R)-tetrahydrofuran-2-ylmethyl]-1,2-dihydro-3H-pyrazol-3-ylidene}-2-{2-[(4S)-2,2-dimethyl-1,3-dioxolan-4-yl]ethoxy}-5-(trifluoromethyl)benzamide]
[1]; human CB2 (Ki, nM)
  Ki: 25 nM
[2]; Rat CB1 cyclase (EC50, nM)
  EC50: > 27000 nM
[3]; rat CB2 cyclase (EC50, nM)
  EC50: 0.7 nM
[4]; rat CB2 (Ki, nM)
  Ki: 36 nM

## Cn1c(C(C)(C)C)c/c(=N\C(=O)c2cc(C(F)(F)F)ccc2OC[C@@H]2CCC(=O)N2)n1C[C@H]1CCCO1 [Example 12, N-{(3E)-5-tert-butyl-1-methyl-2-[(2R)-tetrahydrofuran-2-ylmethyl]-1,2-dihydro-3H-pyrazol-3-ylidene}-2-{[(2S)-5-oxopyrrolidin-2-yl]methoxy}-5-(trifluoromethyl)benzamide]
[1]; human CB2 (Ki, nM)
  Ki: 99 nM
[2]; Rat CB1 cyclase (EC50, nM)
  EC50: > 27000 nM
[3]; rat CB2 cyclase (EC50, nM)
  EC50: 0.79 nM
[4]; rat CB2 (Ki, nM)
  Ki: 46 nM

## CSCCOc1ccc(C(F)(F)F)cc1C(=O)/N=c1\cc(C(C)(C)C)n(C)n1C[C@H]1CCCO1 [Example 57]
[1]; human CB2 (Ki, nM)
  Ki: 11 nM
[2]; Rat CB1 cyclase (EC50, nM)
  EC50: 7530 nM
[3]; rat CB2 cyclase (EC50, nM)
  EC50: 1.4 nM
[4]; rat CB2 (Ki, nM)
  Ki: 1.9 nM

## Cn1c(C(C)(C)C)c/c(=N\C(=O)c2cc(C(F)(F)F)ccc2OCCNS(=O)(=O)C2CC2)n1C[C@H]1CCCO1 [Example 49, N-{(3E)-5-tert-butyl-1-methyl-2-[(2R)-tetrahydrofuran-2-ylmethyl]-1,2-dihydro-3H-pyrazol-3-ylidene}-2-{2-[(cyclopropylsulfonyl)amino]ethoxy}-5-(trifluoromethyl)benzamide]
[1]; human CB2 (Ki, nM)
  Ki: 13 nM
[2]; Rat CB1 cyclase (EC50, nM)
  EC50: 4190 nM
[3]; rat CB2 cyclase (EC50, nM)
  EC50: 0.12 nM
[4]; rat CB2 (Ki, nM)
  Ki: 2.7 nM

## Cn1c(C(C)(C)C)c/c(=N\C(=O)c2cc(C(F)(F)F)ccc2OCCN2CCCC2=O)n1C[C@H]1CCCO1 [Example 15]
[1]; human CB2 (Ki, nM)
  Ki: 193 nM
[2]; Rat CB1 cyclase (EC50, nM)
  EC50: > 27000 nM
[3]; rat CB2 cyclase (EC50, nM)
  EC50: 1.4 nM
[4]; rat CB2 (Ki, nM)
  Ki: 203 nM

## Cn1c(C(C)(C)C)c/c(=N\C(=O)c2cc(C(F)(F)F)ccc2OC[C@H]2COC(C)(C)O2)n1C[C@H]1CCCO1 [Example 18, N-{(3E)-5-tert-butyl-1-methyl-2-[(2R)-tetrahydrofuran-2-ylmethyl]-1,2-dihydro-3H-pyrazol-3-ylidene}-2-{[(4S)-2,2-dimethyl-1,3-dioxolan-4-yl]methoxy}-5-(trifluoromethyl)benzamide]
[1]; human CB2 (Ki, nM)
  Ki: 37 nM
[2]; Rat CB1 cyclase (EC50, nM)
  EC50: > 27000 nM
[3]; rat CB2 cyclase (EC50, nM)
  EC50: 1.8 nM
[4]; rat CB2 (Ki, nM)
  Ki: 22 nM

## CN1CCC[C@H]1COc1ccc(C(F)(F)F)cc1C(=O)/N=c1\sc(C(C)(C)C)nn1C[C@H]1CCCO1 [Example 69, N-[(2Z)-5-tert-butyl-3-[(2R)-tetrahydrofuran-2-ylmethyl]-1,3,4-thiadiazol-2(3 H)-ylidene]-2-{[(2S)-1-methylpyrrolidin-2-yl]methoxy}-5-(trifluoromethyl)benzamide]
[1]; human CB2 (Ki, nM)
  Ki: 10 nM and 14 nM
[3]; rat CB2 cyclase (EC50, nM)
  EC50: 0.93 nM and 0.16 nM
[4]; rat CB2 (Ki, nM)
  Ki: 19 nM and 5 nM
